In one data set the test system is Bombus terrestris. Description: Acute contact (topical) insecticide bioassay of bumble bees. The conditions noted are these: no synergist, 48 hours after application. The method, then:
(§1) Acute contact insecticide assays were performed on female A. mellifera following standard methods OECD 2013 [30]. Bioassays of B. terrestris were based on the OECD guidelines developed for honeybees but with bees assayed in individual Nicot cages. Bees were starved of sucrose solution for up to 2 hr to encourage feeding during the experiment. […] Controls were fed a solution of sucrose containing a concentration of acetone matching that of the highest treatment concentration. After 4-6 hr the syringes were assessed to see if bees had consumed the insecticide-sucrose solution. Those that had not consumed all of the solution were excluded from the experiment. Mortality was assessed 48 hr after feeding and lethal concentrations (LC50 values) were calculated by probit analysis using Genstat version 16 (VSN International). For synergist bioassays, B. terrestris or A. mellifera workers were first treated with 20 μg of piperonyl butoxide or 1 μg of aminobenzotriazole applied to the dorsal thorax. Synergist bioassays included an additional control group treated only with the synergist. 1 hr after synergist application, bees were then treated with the appropriate insecticide dosage as above.

A further data set has as its target T1, CYP9Q2 (Apis mellifera, UniProt A0A7M7R6F2).
T1 sequence (A0A7M7R6F2 1-532): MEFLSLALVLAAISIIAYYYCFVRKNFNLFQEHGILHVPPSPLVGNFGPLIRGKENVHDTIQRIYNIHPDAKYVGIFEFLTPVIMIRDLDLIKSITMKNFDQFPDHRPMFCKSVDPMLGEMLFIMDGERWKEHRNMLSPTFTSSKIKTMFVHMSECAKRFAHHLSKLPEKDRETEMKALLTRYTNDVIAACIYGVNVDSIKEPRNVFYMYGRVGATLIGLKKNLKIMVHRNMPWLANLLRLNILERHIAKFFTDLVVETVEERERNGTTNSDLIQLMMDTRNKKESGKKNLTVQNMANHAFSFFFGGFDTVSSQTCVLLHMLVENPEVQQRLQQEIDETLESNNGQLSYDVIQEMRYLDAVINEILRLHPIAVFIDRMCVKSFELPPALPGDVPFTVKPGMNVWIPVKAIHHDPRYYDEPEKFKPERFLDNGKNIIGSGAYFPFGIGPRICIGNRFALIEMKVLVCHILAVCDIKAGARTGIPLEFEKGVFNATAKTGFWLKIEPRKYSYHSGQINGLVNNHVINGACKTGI
T1 sequence (Q07994 1-671 partner): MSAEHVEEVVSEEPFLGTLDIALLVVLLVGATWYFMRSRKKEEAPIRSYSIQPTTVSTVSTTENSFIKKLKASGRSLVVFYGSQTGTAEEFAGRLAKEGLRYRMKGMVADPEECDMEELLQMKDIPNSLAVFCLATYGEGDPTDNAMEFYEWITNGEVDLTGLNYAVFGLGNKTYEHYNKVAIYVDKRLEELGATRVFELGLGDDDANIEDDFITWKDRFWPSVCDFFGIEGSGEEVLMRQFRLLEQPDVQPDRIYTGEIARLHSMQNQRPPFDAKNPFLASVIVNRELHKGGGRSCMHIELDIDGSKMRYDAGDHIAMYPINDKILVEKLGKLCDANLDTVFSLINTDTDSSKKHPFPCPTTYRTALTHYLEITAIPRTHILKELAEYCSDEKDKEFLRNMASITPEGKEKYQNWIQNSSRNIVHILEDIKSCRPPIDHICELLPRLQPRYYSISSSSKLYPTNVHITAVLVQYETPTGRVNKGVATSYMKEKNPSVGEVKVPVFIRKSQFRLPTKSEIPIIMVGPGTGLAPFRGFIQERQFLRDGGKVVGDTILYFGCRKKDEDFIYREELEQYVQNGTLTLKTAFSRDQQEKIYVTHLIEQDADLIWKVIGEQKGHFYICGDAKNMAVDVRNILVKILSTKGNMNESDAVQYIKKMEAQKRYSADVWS
Description: in vitro. To be noted: for metabolism by the recombinant P450 (in words): hydroxylation (thiacloprid, imidacloprid) or N-desmethylation (acetamiprid). From the text:
(§2) All bee P450 (see Table S3 for accession numbers) and house fly NADPH-dependent cytochrome P450 reductase (CPR) (GenBank accession number Q07994) genes were obtained by gene synthesis (Geneart, CA, USA) and inserted into the pDEST8 expression vector (Invitrogen). Codon optimization of all bee genes was used to optimize expression in lepidopteran cell lines. The PFastbac1 vector with no inserted DNA was used to produce a control virus. The recombinant baculovirus DNA was constructed and transfected into Trichoplusia ni (High five cells, Thermo Fisher) using the Bac-to-Bac baculovirus expression system (Invitrogen) according to the manufacturer’s instructions. The titer of the recombinant virus was determined following protocols of the supplier. High Five cells grown to a density of 2 × 10^6 cells ml^-1 were co-infected with recombinant baculoviruses containing each bee P450 and CPR with a range of MOI (multiplicity of infection) ratios to identify the optimal conditions. Control cells were co-infected with the baculovirus containing vector with no insert (ctrl-virus) and the recombinant baculovirus expressing CPR using the same MOI ratios. Ferric citrate and δ-aminolevulinic acid hydrochloride were added to a final concentration of 0.1 mM at the time of infection and 24 h after infection to compensate the low levels of endogenous heme in the insect cells. After 48 h, cells were harvested, washed with PBS, and microsomes of the membrane fraction prepared according to standard procedures and stored at −80°C [31]. Briefly, pellets were homogenized for 30 s in 0.1M Na/K-phosphate buffer, pH 7.4 containing 1mM EDTA and DTT and 200mM sucrose using a Fastprep (MP Biomedicals), filtered through miracloth and centrifuging for 10 min at 680 g at 4°C. The supernatant was then centrifuged for 1 h at 100,000 g at 4°C, with the pellet subsequently resuspended in 0.1M Na/K-phosphate buffer, pH 7.6 containing 1mM EDTA and DTT and 10% glycerol using a Dounce tissue grinder. P450 expression and functionality was estimated by measuring CO-difference spectra in reduced samples using a Specord 200 Plus Spectrophotometer (Analytik Jena) and scanning from 500 nm to 400 nm. The protein content of samples was determined using Bradford reagent (Sigma) and bovine serum albumin (BSA) as a reference.
(§3) The total assay volume was 200 μL using three replicates for each data point. Microsomes incubated without NADPH served as a control. The assay was stopped by the addition of ice-cold acetonitrile (to 80% final concentration), centrifuged for 10 min at 3000 g and the supernatant subsequently analyzed by tandem mass spectrometry as described previously. For the chromatography on a Waters Acquity HSS T3 column (2.1x50mm, 1.8μm), acetonitrile/water/0.1% formic acid was used as the eluent in gradient mode. […] The peak integrals were calibrated externally against a standard calibration curve. […] Substrate turnover from two independent reactions were plotted versus controls and Michaelis-Menten kinetics determined using GraphPad Prism version 7 (GraphPad Software, CA, USA).

A further data set addresses CYP9Q1 (Apis mellifera, UniProt A0A7M7GTV9). Nature of the data set: in vitro. The conditions noted are these: for metabolism by the recombinant P450 (in words): hydroxylation (thiacloprid, imidacloprid) or N-desmethylation (acetamiprid).
Description: as §2, §3

In a further data set the target is CYP9Q3 (Apis mellifera, UniProt A0A7M7LMV1). Description: in vitro. The conditions noted are these: for metabolism by the recombinant P450 (in words): hydroxylation (thiacloprid, imidacloprid) or N-desmethylation (acetamiprid).
Chain of CYP9Q3 (A0A7M7LMV1 entry or part of it, one chain of several): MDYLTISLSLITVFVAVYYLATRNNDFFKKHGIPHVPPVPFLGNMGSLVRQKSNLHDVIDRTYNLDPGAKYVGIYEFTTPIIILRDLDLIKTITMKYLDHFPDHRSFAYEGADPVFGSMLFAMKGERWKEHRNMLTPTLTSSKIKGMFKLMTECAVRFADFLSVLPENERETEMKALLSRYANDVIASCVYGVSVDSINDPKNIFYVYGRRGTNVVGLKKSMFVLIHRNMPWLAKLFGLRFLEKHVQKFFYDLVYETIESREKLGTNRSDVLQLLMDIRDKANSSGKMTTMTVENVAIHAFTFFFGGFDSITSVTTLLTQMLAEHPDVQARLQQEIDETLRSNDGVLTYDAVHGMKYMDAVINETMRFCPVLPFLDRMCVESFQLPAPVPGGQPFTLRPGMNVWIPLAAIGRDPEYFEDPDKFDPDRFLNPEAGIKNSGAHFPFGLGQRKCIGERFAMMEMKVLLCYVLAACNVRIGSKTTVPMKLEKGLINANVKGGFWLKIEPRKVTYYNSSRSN
Description: as §2, §3

The subject of data set [1] is bumble bees (Bombus terrestris). Description: Bumble bee contact and oral bioassays taken together, EPA rating. To be noted: depends on route of exposure. The method, then: as §1
Where [2] appears, read: apparent value, mean ± SD (n=3), decimal commas.

Chain of CYP9Q1 (A0A7M7GTV9 entry or part of it, one chain of several): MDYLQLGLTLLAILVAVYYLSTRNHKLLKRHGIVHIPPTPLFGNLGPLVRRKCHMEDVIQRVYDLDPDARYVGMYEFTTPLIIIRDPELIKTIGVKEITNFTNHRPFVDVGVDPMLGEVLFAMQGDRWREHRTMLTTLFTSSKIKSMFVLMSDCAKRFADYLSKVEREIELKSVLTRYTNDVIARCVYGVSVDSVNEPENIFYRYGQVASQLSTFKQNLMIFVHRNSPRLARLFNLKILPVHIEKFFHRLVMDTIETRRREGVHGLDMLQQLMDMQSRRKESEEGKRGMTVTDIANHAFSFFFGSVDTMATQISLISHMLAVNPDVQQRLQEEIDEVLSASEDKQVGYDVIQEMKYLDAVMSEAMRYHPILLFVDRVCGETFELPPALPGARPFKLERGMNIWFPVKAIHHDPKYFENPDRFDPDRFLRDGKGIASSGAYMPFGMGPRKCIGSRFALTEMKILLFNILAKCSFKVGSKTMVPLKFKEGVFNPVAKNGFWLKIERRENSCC

The term Km denotes the substrate concentration at which the rate is half of its maximum. Take `N#C/N=C1\SCCN1Cc1ccc(Cl)nc1` [thiacloprid]: the LD50 in the data set on Bombus terrestris is given as over 100 μg/bee. Moreover, the Km at 2 h on CYP9Q2 (Apis mellifera) amounted to 5.65 µM; on CYP9Q1 (Apis mellifera), 17.8 µM; on CYP9Q3 (Apis mellifera) it was 3.92 µM. The “Vmax, thiacloprid hydroxylation” value at CYP9Q2 (setting [2]) is listed as 44,31±1,01 pmol min-1 mg-1; at CYP9Q1 (setting [2]) it was 3,92 ±0,08 pmol min-1 mg-1; at CYP9Q3 (setting [2]), 607,8±5,48 pmol min-1 mg-1. Moreover, the “metabolism by the recombinant P450 (in words)” value on CYP9Q2 is reported as “weak activity”; at CYP9Q1, “weak activity”; on CYP9Q3, “highly efficient metabolizer”. Further, the EPA toxicity category entry in data set [1] is “slightly toxic” or “practically non-toxic”.

`O=[N+]([O-])NC1=NCCN1Cc1ccc(Cl)nc1` [imidacloprid]: the LD50 in the data set with Bombus terrestris is 0.38 μg/bee. Further, the “metabolism by the recombinant P450 (in words)” value at CYP9Q2, on CYP9Q1 and on CYP9Q3 was “much lower efficiency than exhibited for thiacloprid” throughout. For the same compound, the EPA toxicity category result in data set [1] is “highly toxic”.

Values taken from PMC5887109, “Unravelling the Molecular Determinants of Bee Sensitivity to Neonicotinoid Insecticides” (Current Biology, 2018).
